Data published in US11505547B2, “Compounds” (STEP PHARMA S.A.S., priority 2017, dated 2022).

How the values were obtained:
human CTPS1 [1] = molecular target: T1, human CTPS1 (Homo sapiens, UniProt P17812); test: Human CTPS1 enzyme inhibition, ADP-Glo Max assay; format: biochemical; settings: human full length CTPS1, read-out: CTPS1 (Human CTPS1 Enzyme Inhibition data grouped by potency range, IC50)
T1 construct: purchased Proteros biostructures GmbH
T1 sequence (P17812 1-591): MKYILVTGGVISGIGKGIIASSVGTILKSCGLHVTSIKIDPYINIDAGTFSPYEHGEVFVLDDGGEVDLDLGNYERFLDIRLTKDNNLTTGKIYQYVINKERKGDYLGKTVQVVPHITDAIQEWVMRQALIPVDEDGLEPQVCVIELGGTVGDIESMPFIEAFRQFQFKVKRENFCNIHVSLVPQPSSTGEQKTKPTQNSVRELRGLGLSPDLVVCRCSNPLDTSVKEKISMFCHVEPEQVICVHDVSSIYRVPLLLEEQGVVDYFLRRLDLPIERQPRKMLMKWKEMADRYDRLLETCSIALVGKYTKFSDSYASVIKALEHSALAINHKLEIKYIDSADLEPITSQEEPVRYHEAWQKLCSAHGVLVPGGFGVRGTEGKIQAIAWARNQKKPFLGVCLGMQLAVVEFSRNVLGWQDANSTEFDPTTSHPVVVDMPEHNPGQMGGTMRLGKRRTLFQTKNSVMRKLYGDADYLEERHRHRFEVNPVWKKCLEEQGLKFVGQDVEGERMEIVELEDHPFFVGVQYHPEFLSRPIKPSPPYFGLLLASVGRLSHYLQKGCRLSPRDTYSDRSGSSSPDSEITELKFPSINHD
Summary of the method: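 Full-length C-terminal FLAG-His-tagged protein in 50 mM Tris pH 8.0, 10 mM MgCl2, 0.01% Tween-20 and 2 mM L-cysteine, preincubated with compound for 10 min at 25 °C. The substrate mix held ATP 0.31 mM, GTP 0.034 mM, UTP 0.48 mM and L-glutamine 0.186 mM, and the reaction ran within its linear phase. ADP was read by ADP-Glo Max luminescence; IC50 from the % inhibition curve.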

human CTPS1 [2] = molecular target: T1, human CTPS1; test: RapidFire/MS-based enzyme selectivity assay, human CTPS1; format: biochemical; settings: RapidFire/MS IC50s, human CTPS1 versus CTPS2
Procedure: Biological Example 2—RapidFire/MS-Based Enzyme Selectivity Assays
Human CTPS1 Versus CTPS2 Selectivity Assessment by RapidFire/MS Analysis.
The enzyme inhibitory activities against each target isoform of interest were determined for the compounds of the invention using an optimised RapidFire high-throughput mass spectrometry (RF/MS) assay format. RF/MS assays for both human CTPS1 and CTPS2 were performed in assay buffer consisting of 50 mM HEPES (Merck), 20 mM MgCl2, 5 mM KCl, 1 mM DTT, 0.01% Tween-20, pH to 8.0 accordingly. All reagents were from Sigma-Aldrich unless specified otherwise. Human full-length active C-terminal FLAG-His-tag CTPS1 (UniProtKB-P17812, CTPS[1-591]-[…]) was obtained from Proteros biostructures GmbH. Human full length active C-terminal FLAG-His-Avi tagged CTPS2 (UniProtKB-Q9NRF8, CTPS2 [1-586]-[…]) was obtained from Harker Bio.
Human CTPS (1 or 2) protein was prepared in 1× assay buffer to the final working protein concentration required for the reaction. A 2 uL volume per well of 2×CTPS (1 or 2) protein was mixed with 40 nL of compound using acoustic (ECHO) delivery and incubated for 10 minutes at 25° C. Each isoform enzymatic reaction was subsequently initiated by addition of 2 uL per well of a 2× substrate mix in assay buffer. For hCTPS1: ATP (0.3 mM), UTP (0.2 mM), GTP (0.07 mM) and L-glutamine (0.1 mM). For hCTPS2: ATP (0.1 mM), UTP (0.04 mM), GTP (0.03 mM) and L-glutamine (0.1 mM). Each mixture was incubated for an appropriate amount of time per isoform within the determined linear phase of the reaction at 25° C. A 60 uL volume of stop solution (1% formic acid with 0.5 uM ^13C9-^15N3-CTP in H2O) was added and the plate immediately heat-sealed and centrifuged for 10 minutes at 4,000 rpm. Following centrifugation, plates were loaded onto the Agilent RapidFire microfluidic solid phase extraction system coupled to an API4000 triple quadrupole mass spectrometer (RF/MS) for analysis.
In all cases, the enzyme converts UTP to CTP. […] Readout for data analysis was calculated as the ratio between the peak area of the product CTP and the internal standard ^13C9-^15N3-CTP. […]
(R=ratio/readout, P=product signal area, IS=internal standard signal area) […]
(I=Inhibition, Rneg=median of negative control readout values, Rpos=median of positive control readout values, Rsample=sample readout value)
Percentage inhibition was then plotted against compound concentration, and the 50% inhibitory concentration ([…]) was determined from the resultant concentration-response curve.
Fold selectivity between CTPS1 and CTPS2 was subsequently calculated according to the following equation: […]

| IC50 (human CTPS1 [1]) [nM] | Selectivity (fold selectivity between CTPS1 and CTPS2) (human CTPS1 [2]) | SMILES |
| --- | --- | --- |
| < 100 | +++ (>60 fold (+++)) | CCOc1cncc(-c2ccc(C(=O)NC(CC)c3csc(NS(=O)(=O)C4CC4)n3)c(F)c2)n1 (single isomer, unassigned) [Example R71, N-(1-(2-(cyclopropanesulfonamido)thiazol-4-yl)propyl)-4-(6-ethoxypyrazin-2-yl)-2-fluorobenzamide] |
| < 100 | +++ (>60 fold (+++)) | CCOc1cncc(-c2ccc(C(=O)NC(CCOC)c3csc(NS(=O)(=O)C4CC4)n3)c(F)c2)n1 (single isomer, unassigned) [Example R92, N-(1-(2-(cyclopropanesulfonamido)thiazol-4-yl)-3-methoxypropyl)-4-(6-ethoxypyrazin-2-yl)-2-fluorobenzamide] |
|  | +++ (>60 fold (+++)) | CCOc1cncc(-c2ccc(C(=O)NC(CCOC)c3csc(NS(=O)(=O)C4CC4)n3)c(F)c2)n1 (single isomer, unassigned) [Example R93, N-(1-(2-(cyclopropanesulfonamido)thiazol-4-yl)-3-methoxypropyl)-4-(6-ethoxypyrazin-2-yl)-2-fluorobenzamide] |
| < 100 | ++ (>30-60 fold (++)) | CCOc1cncc(-c2ccc(C(=O)NC(C)(C)c3csc(NS(=O)(=O)C4CC4)n3)c(F)c2)n1 [Example R6, N-(2-(2-(cyclopropanesulfonamido)thiazol-4-yl)propan-2-yl)-4-(6-ethoxypyrazin-2-yl)-2-fluorobenzamide] |
